Among the data in patent publication US9096500B2, “Acyl sulfonamide compounds” (Pfizer Limited, priority 2010, dated 2015) are IC50 values, retold here.

T1 sequence (Q15858 whole entry): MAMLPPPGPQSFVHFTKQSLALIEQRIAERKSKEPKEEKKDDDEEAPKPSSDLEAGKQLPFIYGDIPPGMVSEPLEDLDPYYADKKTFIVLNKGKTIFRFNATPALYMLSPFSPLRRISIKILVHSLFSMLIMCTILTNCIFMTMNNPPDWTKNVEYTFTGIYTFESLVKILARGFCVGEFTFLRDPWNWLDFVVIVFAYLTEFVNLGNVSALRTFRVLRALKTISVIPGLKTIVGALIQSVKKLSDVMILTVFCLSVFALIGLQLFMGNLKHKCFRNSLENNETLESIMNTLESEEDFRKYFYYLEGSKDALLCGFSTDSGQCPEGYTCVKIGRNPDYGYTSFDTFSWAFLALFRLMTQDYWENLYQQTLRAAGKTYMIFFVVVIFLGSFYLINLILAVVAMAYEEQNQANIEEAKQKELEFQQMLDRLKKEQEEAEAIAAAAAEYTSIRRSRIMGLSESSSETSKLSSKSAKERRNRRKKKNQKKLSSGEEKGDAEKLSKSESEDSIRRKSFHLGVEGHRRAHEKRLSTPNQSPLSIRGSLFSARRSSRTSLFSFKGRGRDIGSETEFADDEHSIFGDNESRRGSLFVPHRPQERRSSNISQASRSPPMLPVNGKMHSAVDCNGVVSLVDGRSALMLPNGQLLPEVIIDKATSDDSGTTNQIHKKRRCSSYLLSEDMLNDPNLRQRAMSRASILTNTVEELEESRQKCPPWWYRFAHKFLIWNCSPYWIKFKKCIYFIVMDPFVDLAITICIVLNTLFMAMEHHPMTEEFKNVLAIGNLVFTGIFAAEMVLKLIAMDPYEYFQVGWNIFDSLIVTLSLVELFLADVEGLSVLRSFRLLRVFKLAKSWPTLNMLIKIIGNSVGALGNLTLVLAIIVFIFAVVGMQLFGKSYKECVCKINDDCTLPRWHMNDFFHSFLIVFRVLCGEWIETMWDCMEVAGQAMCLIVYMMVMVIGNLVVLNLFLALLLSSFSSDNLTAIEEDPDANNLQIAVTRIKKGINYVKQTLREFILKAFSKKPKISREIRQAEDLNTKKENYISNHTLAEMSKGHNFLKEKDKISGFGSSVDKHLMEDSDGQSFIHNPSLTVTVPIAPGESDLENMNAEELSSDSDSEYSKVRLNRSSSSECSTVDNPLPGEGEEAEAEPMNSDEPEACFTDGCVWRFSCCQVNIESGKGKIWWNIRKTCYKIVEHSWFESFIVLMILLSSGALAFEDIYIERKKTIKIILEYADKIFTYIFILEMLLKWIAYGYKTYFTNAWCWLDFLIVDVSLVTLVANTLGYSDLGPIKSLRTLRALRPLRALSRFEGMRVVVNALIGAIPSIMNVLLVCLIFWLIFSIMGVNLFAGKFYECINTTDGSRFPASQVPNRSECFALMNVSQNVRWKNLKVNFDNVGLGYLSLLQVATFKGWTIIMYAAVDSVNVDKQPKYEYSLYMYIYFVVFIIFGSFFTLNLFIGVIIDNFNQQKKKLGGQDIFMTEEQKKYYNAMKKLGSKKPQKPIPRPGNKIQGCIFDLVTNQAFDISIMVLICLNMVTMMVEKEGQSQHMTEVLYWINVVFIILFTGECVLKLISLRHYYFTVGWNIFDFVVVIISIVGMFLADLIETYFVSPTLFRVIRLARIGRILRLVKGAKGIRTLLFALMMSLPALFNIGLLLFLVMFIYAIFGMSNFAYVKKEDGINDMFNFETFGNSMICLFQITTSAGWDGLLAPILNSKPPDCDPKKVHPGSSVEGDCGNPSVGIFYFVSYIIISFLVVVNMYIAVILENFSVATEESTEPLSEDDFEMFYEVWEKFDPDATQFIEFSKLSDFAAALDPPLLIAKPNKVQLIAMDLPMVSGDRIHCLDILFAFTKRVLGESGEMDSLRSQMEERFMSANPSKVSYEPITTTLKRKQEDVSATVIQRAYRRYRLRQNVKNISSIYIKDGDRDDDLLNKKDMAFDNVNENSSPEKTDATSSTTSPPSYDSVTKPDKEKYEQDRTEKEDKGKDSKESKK

The experiment concerns the target T1, Nav1.7 (or SCN9A) channel (Homo sapiens, UniProt Q15858).
T1 construct: expressed in transfected cells
As to the kind of experiment: Nav1.7 (hSCN9A) electrophysiology assay, PatchXpress platform. It is filed as cell-based. The following applies: estimated IC50 from single point electrophysiology data, HEK cells stably expressing hSCN9A, held at V1/2 of inactivation, read-out: Nav1.7 EIC50. In a few lines: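 HEK cells stably expressing hSCN9A were recorded by whole-cell voltage clamp, including on PatchXpress, at 22–24°C with extracellular solution at pH 7.4. A 20 msec step to 0 mV followed an 8 s conditioning prepulse to the empirically determined inactivation V1/2. Inhibition was taken from current amplitude before vs after compound.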
Consider `Cc1ccc(OCc2cc(F)c(C(=O)NS(C)(=O)=O)cc2F)cc1Cl` [Example 151, 4-[(3-chloro-4-methylphenoxy)methyl]-2,5-difluoro-N-(methylsulfonyl)benzamide], for which the IC50 was 65 nM.
Next, `CS(=O)(=O)NC(=O)c1cc(F)c(COc2ccc(F)cc2C#N)cc1F` [Example 153, 4-[(2-cyano-4-fluorophenoxy)methyl]-2,5-difluoro-N-(methylsulfonyl)benzamide]: 12000 nM; `CS(=O)(=O)NC(=O)c1cc(F)c(COc2cccc(C#N)c2)cc1F` [Example 154, 4-[(3-cyanophenoxy)methyl]-2,5-difluoro-N-(methylsulfonyl)benzamide]: 11000 nM; `COc1ccc(OCc2cc(F)c(C(=O)NS(C)(=O)=O)cc2F)c(F)c1F` [Example 155, 4-[(2,3-difluoro-4-methoxyphenoxy)methyl]-2,5-difluoro-N-(methylsulfonyl)benzamide]: 3200 nM.
Regarding `COc1ccc2cccc(OCc3cc(F)c(C(=O)NS(C)(=O)=O)cc3F)c2c1` [Example 156, 2,5-difluoro-4-{[(7-methoxy-1-naphthyl)oxy]methyl}-N-(methylsulfonyl)benzamide], the IC50 is 2300 nM.
`COc1ccc(OCc2cc(F)c(C(=O)NS(C)(=O)=O)cc2F)c(Cl)c1` [Example 157, 4-[(2-chloro-4-methoxyphenoxy)methyl]-2,5-difluoro-N-(methylsulfonyl)benzamide]: the IC50 was 2100 nM.
Next, `CS(=O)(=O)NC(=O)c1cc(F)c(COc2ccc(F)cc2)cc1F` [Example 158, 2,5-difluoro-4-[(4-fluorophenoxy)methyl]-N-(methylsulfonyl)benzamide]: 1500 nM.
For `Cc1cc(OCc2cc(F)c(C(=O)NS(C)(=O)=O)cc2F)ccc1Cl` [Example 159, 4-[(4-chloro-3-methylphenoxy)methyl]-2,5-difluoro-N-(methylsulfonyl)benzamide] the value was 130 nM; for `COc1ccc(OCc2cc(F)c(C(=O)NS(C)(=O)=O)cc2F)c2ccccc12` [Example 160, 2,5-difluoro-4-{[(4-methoxy-1-naphthyl)oxy]methyl}-N-(methylsulfonyl)benzamide], 760 nM; for `Cc1cc(OCc2cc(F)c(C(=O)NS(C)(=O)=O)cc2F)cc(C)c1C#N` [Example 162, 4-[(4-cyano-3,5-dimethylphenoxy)methyl]-2,5-difluoro-N-(methylsulfonyl)benzamide], 730 nM.
Turning to `CS(=O)(=O)NC(=O)c1cc(F)c(COc2ccc(F)c(Cl)c2C#N)cc1F` [Example 163, 4-[(3-chloro-2-cyano-4-fluorophenoxy)methyl]-2,5-difluoro-N-(methylsulfonyl)benzamide], the IC50 was over 1000 nM.
For `COc1ccc(OCc2cc(F)c(C(=O)NS(C)(=O)=O)cc2F)cc1` [Example 164, 2,5-difluoro-4-[(4-methoxyphenoxy)methyl]-N-(methylsulfonyl)benzamide] the value was over 3000 nM; for `CS(=O)(=O)NC(=O)c1cc(F)c(COc2cccc3ccccc23)cc1F` [Example 165, 2,5-difluoro-N-(methylsulfonyl)-4-[(1-naphthyloxy)methyl]benzamide], 740 nM.
For the compound `Cc1nc(-c2cccc(OCc3cc(F)c(C(=O)NS(C)(=O)=O)cc3F)c2)no1` [Example 166, 2,5-difluoro-4-{[3-(5-methyl-1,2,4-oxadiazol-3-yl)phenoxy]methyl}-N-(methylsulfonyl)benzamide], the IC50 was 1300 nM.
As for `Cc1c(OCc2cc(F)c(C(=O)NS(C)(=O)=O)cc2F)ccc(F)c1F` [Example 167, 4-[(3,4-difluoro-2-methylphenoxy)methyl]-2,5-difluoro-N-(methylsulfonyl)benzamide], the IC50 is 2600 nM.
Take `CS(=O)(=O)NC(=O)c1cc(F)c(COc2cccc(N3CCCCC3)c2)cc1F` [Example 168, 2,5-difluoro-N-(methylsulfonyl)-4-[(3-piperidin-1-ylphenoxy)methyl]benzamide]: the IC50 is 3100 nM.
For `COc1ccccc1COc1ccc(C(=O)NS(C)(=O)=O)cc1` [Example 169, 4-[(2-methoxybenzyl)oxy]-N-(methylsulfonyl)benzamide] the value was over 3000 nM.
As for `CS(=O)(=O)NC(=O)c1ccc(OCc2cccc(F)c2F)cc1` [Example 170, 4-[(2,3-difluorobenzyl)oxy]-N-(methylsulfonyl)benzamide], the IC50 is over 3000 nM.
As for `CS(=O)(=O)NC(=O)c1ccc(OCc2ccc(F)cc2Cl)cc1` [Example 171, 4-[(2-chloro-4-fluorobenzyl)oxy]-N-(methylsulfonyl)benzamide], the IC50 is 2900 nM.
Next, `CS(=O)(=O)NC(=O)c1ccc(OCc2ccc(C#N)cc2)cc1` [Example 172, 4-[(4-cyanobenzyl)oxy]-N-(methylsulfonyl)benzamide]: over 3000 nM; `CS(=O)(=O)NC(=O)c1ccc(OCc2cc(Cl)cc(Cl)c2)cc1` [Example 173, 4-[(3,5-dichlorobenzyl)oxy]-N-(methylsulfonyl)benzamide]: 250 nM.
As to `CS(=O)(=O)NC(=O)c1ccc(OCC2CCCCC2)cc1` [Example 174, 4-(cyclohexylmethoxy)-N-(methylsulfonyl)benzamide], the IC50 was 1300 nM.
For `CS(=O)(=O)NC(=O)c1ccc(OCc2cc(Cl)ccc2Cl)cc1` [Example 175, 4-[(2,5-dichlorobenzyl)oxy]-N-(methylsulfonyl)benzamide] the value was 2100 nM; for `CS(=O)(=O)NC(=O)c1ccc(OCc2ccc(F)cc2)cc1` [Example 176, 4-[(4-fluorobenzyl)oxy]-N-(methylsulfonyl)benzamide], over 1000 nM; for `CS(=O)(=O)NC(=O)c1ccc(OCc2ccc(F)c(F)c2)cc1` [Example 177, 4-[(3,4-difluorobenzyl)oxy]-N-(methylsulfonyl)benzamide], 2100 nM.
Next, `CS(=O)(=O)NC(=O)c1ccc(OCc2ccc(Cl)c(F)c2)cc1` [Example 178, 4-[(4-chloro-3-fluorobenzyl)oxy]-N-(methylsulfonyl)benzamide]: 810 nM; `CS(=O)(=O)NC(=O)c1ccc(OCc2cccc(C(F)(F)F)c2)cc1` [Example 179, N-(methylsulfonyl)-4-{[3-(trifluoromethyl)benzyl]oxy}benzamide]: over 1000 nM.
Consider `CS(=O)(=O)NC(=O)c1ccc(OCc2ccccc2F)cc1` [Example 180, 4-[(2-fluorobenzyl)oxy]-N-(methylsulfonyl)benzamide], for which the IC50 was over 3000 nM.
Next, `CS(=O)(=O)NC(=O)c1ccc(OCc2ccc(OC(F)(F)F)cc2)cc1` [Example 181, N-(methylsulfonyl)-4-{[4-(trifluoromethoxy)benzyl]oxy}benzamide]: 570 nM.
Consider `CS(=O)(=O)NC(=O)c1ccc(OCc2c(F)cccc2Cl)cc1` [Example 182, 4-[(2-chloro-6-fluorobenzyl)oxy]-N-(methylsulfonyl)benzamide], for which the IC50 was over 1000 nM.
`CS(=O)(=O)NC(=O)c1ccc(OCc2ccccc2C(F)(F)F)cc1` [Example 183, N-(methylsulfonyl)-4-{[2-(trifluoromethyl)benzyl]oxy}benzamide]: the IC50 is 4300 nM.
In the case of `CS(=O)(=O)NC(=O)c1ccc(OCc2c(Cl)cccc2Cl)cc1` [Example 184, 4-[(2,6-dichlorobenzyl)oxy]-N-(methylsulfonyl)benzamide], the IC50 is 2600 nM.
Consider `COc1cc(COc2ccc(C(=O)NS(C)(=O)=O)cc2)ccc1F` [Example 185, 4-[(4-fluoro-3-methoxybenzyl)oxy]-N-(methylsulfonyl)benzamide], for which the IC50 is over 1000 nM.
Next, `CS(=O)(=O)NC(=O)c1ccc(OCc2ccccc2Cl)cc1` [Example 186, 4-[(2-chlorobenzyl)oxy]-N-(methylsulfonyl)benzamide]: 7300 nM.
Next, `CS(=O)(=O)NC(=O)c1ccc(OCc2cc(F)cc(F)c2)cc1` [Example 187, 4-[(3,5-difluorobenzyl)oxy]-N-(methylsulfonyl)benzamide]: 4200 nM; `COc1ccc(F)c(COc2ccc(C(=O)NS(C)(=O)=O)cc2)c1` [Example 188, 4-[(2-fluoro-5-methoxybenzyl)oxy]-N-(methylsulfonyl)benzamide]: 2500 nM; `CS(=O)(=O)NC(=O)c1ccc(OCc2cccc(Cl)c2Cl)cc1` [Example 189, 4-[(2,3-dichlorobenzyl)oxy]-N-(methylsulfonyl)benzamide]: 1500 nM.
For `CS(=O)(=O)NC(=O)c1ccc(OCc2ccc(Cl)cc2Cl)cc1` [Example 190, 4-[(2,4-dichlorobenzyl)oxy]-N-(methylsulfonyl)benzamide] the value was 620 nM.
Turning to `CS(=O)(=O)NC(=O)c1ccc(OCC2CCCC2)cc1` [Example 191, 4-(cyclopentylmethoxy)-N-(methylsulfonyl)benzamide], the IC50 was 7600 nM.
For `CS(=O)(=O)NC(=O)c1cc(F)c(OCc2cccc(C(F)(F)F)c2)cc1F` [Example 192, 2,5-difluoro-N-(methylsulfonyl)-4-{[3-(trifluoromethyl)benzyl]oxy}benzamide] the value was 3100 nM.
Turning to `CS(=O)(=O)NC(=O)c1cc(F)c(OCc2ccc(C(F)(F)F)cc2)cc1F` [Example 193, 2,5-difluoro-N-(methylsulfonyl)-4-{[4-(trifluoromethyl)benzyl]oxy}benzamide], the IC50 is 4700 nM.
As for `CS(=O)(=O)NC(=O)c1cc(F)c(OCc2cccc3ccccc23)cc1F` [Example 194, 2,5-difluoro-N-(methylsulfonyl)-4-(1-naphthylmethoxy)benzamide], the IC50 is 1700 nM.
For `CS(=O)(=O)NC(=O)c1cc(F)c(OCc2cccc(F)c2)cc1F` [Example 195, 2,5-difluoro-4-[(3-fluorobenzyl)oxy]-N-(methylsulfonyl)benzamide], the IC50 is over 3000 nM.
For `Cc1ccc(COc2cc(F)c(C(=O)NS(C)(=O)=O)cc2F)cc1` [Example 196, 2,5-difluoro-4-[(4-methylbenzyl)oxy]-N-(methylsulfonyl)benzamide] the value was over 1000 nM.
